Results taken from patent publication US8148391B2 (Cephalon, Inc., priority 2006, dated 2012).

Legend:
[1] = target: T1, baculovirus-expressed ALK (Homo sapiens, UniProt Q9UM73); assay: ALK Kinase Assay (ELISA-type, time-resolved fluorescence); format: biochemical; conditions: 1 μM ATP (Km level), 30 ng/ml ALK, 37° C., 15 minutes; read-out: ALK Activity (ALK kinase inhibition, IC50 class)
T1 construct: host or cells: baculovirus expression system
How it was run: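 Wells were coated with phospholipase C-γ at 10 μg/mL in Tris-buffered saline. Adding 30 ng/ml enzyme started the reaction, which ran at 37° C for 15 minutes before Eu-N1 PT66 antibody detection. Percent inhibition versus log10 concentration gave IC50 by variable-slope fit.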

[2] = target: T2, c-Met (cytoplasmic domain) (Homo sapiens, UniProt P08581); assay: c-Met Kinase Assay (same methods as for ALK, with modifications); format: biochemical; conditions: 1 μM ATP (Km level), 10 ng/mL c-Met; read-out: cMet Activity (c-Met kinase inhibition, IC50 class)
T2 construct: 10 ng/mL c-Met (cytoplasmic domain, Invitrogen Corporation #PV3143); purchased Invitrogen Corporation PV3143
T2 sequence (P08581 956-1390 limits assumed): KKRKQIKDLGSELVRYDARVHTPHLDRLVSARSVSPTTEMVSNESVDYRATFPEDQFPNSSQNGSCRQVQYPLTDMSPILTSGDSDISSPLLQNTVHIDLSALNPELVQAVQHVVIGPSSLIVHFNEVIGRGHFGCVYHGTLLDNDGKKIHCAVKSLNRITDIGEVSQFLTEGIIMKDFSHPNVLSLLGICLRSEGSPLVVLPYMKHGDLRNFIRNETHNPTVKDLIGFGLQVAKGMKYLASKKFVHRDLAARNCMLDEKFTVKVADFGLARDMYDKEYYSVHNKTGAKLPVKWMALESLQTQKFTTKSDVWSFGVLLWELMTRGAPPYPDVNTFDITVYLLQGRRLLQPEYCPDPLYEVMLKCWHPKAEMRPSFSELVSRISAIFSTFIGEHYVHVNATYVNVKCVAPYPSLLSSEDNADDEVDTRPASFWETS
How it was run: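 Steps: coat wells with PLC-γ (10 μg/mL, Tris-buffered saline); add 10 ng/mL c-Met cytoplasmic domain to initiate; incubate 15 min, 37° C; detect phosphoproduct via Eu-N1 PT66 antibody.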

T1 sequence (Q9UM73 19-1620): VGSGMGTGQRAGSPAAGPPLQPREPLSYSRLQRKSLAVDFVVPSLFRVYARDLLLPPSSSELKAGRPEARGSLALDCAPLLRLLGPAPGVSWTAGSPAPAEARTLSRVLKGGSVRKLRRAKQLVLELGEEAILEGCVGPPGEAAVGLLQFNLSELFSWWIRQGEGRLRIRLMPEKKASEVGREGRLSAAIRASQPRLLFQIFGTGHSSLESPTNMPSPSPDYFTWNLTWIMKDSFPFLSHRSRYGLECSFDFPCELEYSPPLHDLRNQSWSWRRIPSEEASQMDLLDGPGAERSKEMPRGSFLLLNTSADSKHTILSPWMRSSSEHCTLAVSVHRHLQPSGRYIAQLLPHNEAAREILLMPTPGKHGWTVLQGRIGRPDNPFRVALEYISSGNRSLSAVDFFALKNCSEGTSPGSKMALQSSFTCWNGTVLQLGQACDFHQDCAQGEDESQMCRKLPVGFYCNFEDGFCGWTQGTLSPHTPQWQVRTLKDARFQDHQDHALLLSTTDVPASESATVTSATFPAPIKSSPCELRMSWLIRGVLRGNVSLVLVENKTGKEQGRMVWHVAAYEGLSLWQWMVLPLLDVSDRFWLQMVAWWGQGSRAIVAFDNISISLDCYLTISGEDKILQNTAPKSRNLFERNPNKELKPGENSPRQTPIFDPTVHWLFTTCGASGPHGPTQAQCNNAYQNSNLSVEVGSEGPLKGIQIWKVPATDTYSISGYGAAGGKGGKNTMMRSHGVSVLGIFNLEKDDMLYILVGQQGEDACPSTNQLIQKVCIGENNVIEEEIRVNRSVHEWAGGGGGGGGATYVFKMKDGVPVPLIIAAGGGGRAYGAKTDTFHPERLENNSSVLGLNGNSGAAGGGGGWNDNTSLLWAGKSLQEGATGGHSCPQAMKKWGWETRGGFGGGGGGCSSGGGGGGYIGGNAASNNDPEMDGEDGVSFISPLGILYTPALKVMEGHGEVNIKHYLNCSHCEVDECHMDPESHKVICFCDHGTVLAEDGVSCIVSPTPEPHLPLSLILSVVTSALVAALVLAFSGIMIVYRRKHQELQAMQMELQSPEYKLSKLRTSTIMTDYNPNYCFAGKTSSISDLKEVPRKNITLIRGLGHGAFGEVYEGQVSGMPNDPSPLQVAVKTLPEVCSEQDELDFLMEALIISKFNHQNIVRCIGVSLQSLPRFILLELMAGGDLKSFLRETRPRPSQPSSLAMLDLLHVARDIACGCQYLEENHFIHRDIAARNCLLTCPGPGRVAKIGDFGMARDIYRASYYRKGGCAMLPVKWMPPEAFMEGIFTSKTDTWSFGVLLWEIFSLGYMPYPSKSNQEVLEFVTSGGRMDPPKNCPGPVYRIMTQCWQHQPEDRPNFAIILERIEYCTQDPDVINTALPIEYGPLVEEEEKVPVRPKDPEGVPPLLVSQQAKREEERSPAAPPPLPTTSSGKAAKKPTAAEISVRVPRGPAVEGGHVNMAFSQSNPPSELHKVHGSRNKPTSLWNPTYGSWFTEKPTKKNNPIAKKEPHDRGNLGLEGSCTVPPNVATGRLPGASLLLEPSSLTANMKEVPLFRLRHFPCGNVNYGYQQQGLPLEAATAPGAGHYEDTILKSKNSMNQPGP

| SMILES | IC50 [1] [nM] | IC50 [2] [nM] |
| --- | --- | --- |
| COCCN1CCc2ccc(Nc3ncc(Cl)c(Nc4ccccc4Cl)n3)cc2CC1 [Example 1376, 5-Chloro-N(4)-(2-chloro-phenyl)-N(2)-[3-(2-methoxy-ethyl)-2,3,4,5-tetrahydro-1H-benzo[d]azepin-7-yl]-pyrimidine-2,4-diamine] | < 100 | 100 to 1000 |
| COCCN1CCc2ccc(Nc3ncc(Cl)c(NC4CCCCC4)n3)cc2CC1 [Example 1377, 5-Chloro-N(4)-cyclohexyl-N(2)-[3-(2-methoxy-ethyl)-2,3,4,5-tetrahydro-1H-benzo[d]azepin-7-yl]-pyrimidine-2,4-diamine] | < 100 | 100 to 1000 |
| COCCN1CCc2ccc(Nc3ncc(Cl)c(N[C@H]4CC[C@H](NS(C)(=O)=O)CC4)n3)cc2CC1 [Example 1378, trans-N-(4-{5-Chloro-2-[3-(2-methoxy-ethyl)-2,3,4,5-tetrahydro-1H-benzo[d]azepin-7-ylamino]-pyrimidin-4-ylamino}-cyclohexyl)-methanesulfonamide] | 100 to 1000 | > 10000 |
| COCCN1CCc2ccc(Nc3ncc(Cl)c(N[C@H]4CC[C@@H](NS(C)(=O)=O)CC4)n3)cc2CC1 [Example 1381, cis-N-(4-{5-Chloro-2-[3-(2-methoxy-ethyl)-2,3,4,5-tetrahydro-1H-benzo[d]azepin-7-ylamino]-pyrimidin-4-ylamino}-cyclohexyl)-methanesulfonamide] | 100 to 1000 | 1000 to 10000 |
| COCCN1CCc2ccc(Nc3ncc(Cl)c(N[C@@H]4CCCC[C@H]4N(CC#N)S(C)(=O)=O)n3)cc2CC1 [Example 1383, N-((1R,2R)-2-{5-Chloro-2-[3-(2-methoxy-ethyl)-2,3,4,5-tetrahydro-1H-benzo[d]azepin-7-ylamino]-pyrimidin-4-ylamino}-cyclohexyl)-N-cyanomethyl-methanesulfonamide] | 100 to 1000 | 1000 to 10000 |
| COCCN1CCc2ccc(Nc3ncc(Cl)c(N[C@H]4CC[C@@H](N(CC#N)S(C)(=O)=O)CC4)n3)cc2CC1 [Example 1384, cis-N-(4-{5-Chloro-2-[3-(2-methoxy-ethyl)-2,3,4,5-tetrahydro-1H-benzo[d]azepin-7-ylamino]-pyrimidin-4-ylamino}-cyclohexyl)-N-cyanomethyl-methanesulfonamide] | 100 to 1000 | 1000 to 10000 |
| COCCN1CCc2ccc(Nc3ncc(Cl)c(N[C@H]4CC[C@H](N(CC#N)S(C)(=O)=O)CC4)n3)cc2CC1 [Example 1385, trans-N-(4-{5-Chloro-2-[3-(2-methoxy-ethyl)-2,3,4,5-tetrahydro-1H-benzo[d]azepin-7-ylamino]-pyrimidin-4-ylamino}-cyclohexyl)-N-cyanomethyl-methanesulfonamide] | 100 to 1000 | 1000 to 10000 |
| C#CCNC(=O)c1ccccc1Nc1nc(Nc2ccc3c(c2)CCN(CCOC)CC3)ncc1Cl [Example 1387, 2-{5-Chloro-2-[3-(2-methoxy-ethyl)-2,3,4,5-tetrahydro-1H-benzo[d]azepin-7-ylamino]-pyrimidin-4-ylamino}-N-prop-2-ynyl-benzamide] | < 100 | < 100 |
| C#CCN(C)C(=O)c1ccccc1Nc1nc(Nc2ccc3c(c2)CCN(CCOC)CC3)ncc1Cl [Example 1389, {5-Chloro-2-[3-(2-methoxy-ethyl)-2,3,4,5-tetrahydro-1H-benzo[d]azepin-7-ylamino]-pyrimidin-4-ylamino}-N-methyl-N-prop-2-ynyl-benzamide] | < 100 | 100 to 1000 |
| COc1cc2c(cc1Nc1ncc(Cl)c(Nc3ccc(N4CCOCC4)cc3OC)n1)CCN(C(CF)CF)CC2 [Example 1391, Chloro-N(2)-[3-(2-fluoro-1-fluoromethyl-ethyl)-8-methoxy-2,3,4,5-tetrahydro-1H-benzo[d]azepin-7-yl]-N(4)-(2-methoxy-4-morpholin-4-yl-phenyl)-pyrimidine-2,4-diamine] | < 100 | > 10000 |
| COc1cc2c(cc1Nc1ncc(Cl)c(N[C@@H]3CCCC[C@H]3NS(C)(=O)=O)n1)CCN(C(CF)CF)CC2 [Example 1392, ((1R,2R)-2-{5-Chloro-2-[3-(2-fluoro-1-fluoromethyl-ethyl)-8-methoxy-2,3,4,5-tetrahydro-1H-benzo[d]azepin-7-ylamino]-pyrimidin-4-ylamino}-cyclohexyl)-methanesulfonamide] | < 100 | > 10000 |
| COc1cc2c(cc1Nc1ncc(Cl)c(Nc3ccccc3S(=O)(=O)N(C)C)n1)CCN(C(CF)CF)CC2 [Example 1393, {5-Chloro-2-[3-(2-fluoro-1-fluoromethyl-ethyl)-8-methoxy-2,3,4,5-tetrahydro-1H-benzo[d]azepin-7-ylamino]-pyrimidin-4-ylamino}-N,N-dimethyl-benzenesulfonamide] | < 100 | > 10000 |
| COc1cc2c(cc1Nc1ncc(Cl)c(Nc3ccccc3S(=O)(=O)C(C)C)n1)CCN(C(CF)CF)CC2 [Example 1394, Chloro-N(2)-[3-(2-fluoro-1-fluoromethyl-ethyl)-8-methoxy-2,3,4,5-tetrahydro-1H-benzo[d]azepin-7-yl]-N(4)-[2-(propane-2-sulfonyl)-phenyl]-pyrimidine-2,4-diamine] | < 100 | > 10000 |
| CCOC(=O)c1ccccc1Nc1nc(Nc2ccc3c(c2)CCN(CCOC)CC3)ncc1Cl [Example 1395, {5-Chloro-2-[3-(2-methoxy-ethyl)-2,3,4,5-tetrahydro-1H-benzo[d]azepin-7-ylamino]-pyrimidin-4-ylamino}-benzoic acid ethyl ester] | < 100 | 100 to 1000 |
| COCCN1CCc2ccc(Nc3ncc(Cl)c(Nc4ccccc4C(=O)NCC(C)C)n3)cc2CC1 [Example 1396, {5-Chloro-2-[3-(2-methoxy-ethyl)-2,3,4,5-tetrahydro-1H-benzo[d]azepin-7-ylamino]-pyrimidin-4-ylamino}-N-isobutyl-benzamide] | < 100 | 100 to 1000 |
| COCCN1CCc2ccc(Nc3ncc(Cl)c(Nc4ccccc4C(=O)NCCN(C)C)n3)cc2CC1 [Example 1397, {5-Chloro-2-[3-(2-methoxy-ethyl)-2,3,4,5-tetrahydro-1H-benzo[d]azepin-7-ylamino]-pyrimidin-4-ylamino}-N-(2-dimethylamino-ethyl)-benzamide] | 100 to 1000 | 100 to 1000 |
| COCCNC(=O)c1ccccc1Nc1nc(Nc2ccc3c(c2)CCN(CCOC)CC3)ncc1Cl [Example 1398, {5-Chloro-2-[3-(2-methoxy-ethyl)-2,3,4,5-tetrahydro-1H-benzo[d]azepin-7-ylamino]-pyrimidin-4-ylamino}-N-(2-methoxy-ethyl)-benzamide] | < 100 | 1000 to 10000 |
| COCCCNC(=O)c1ccccc1Nc1nc(Nc2ccc3c(c2)CCN(CCOC)CC3)ncc1Cl [Example 1399, {5-Chloro-2-[3-(2-methoxy-ethyl)-2,3,4,5-tetrahydro-1H-benzo[d]azepin-7-ylamino]-pyrimidin-4-ylamino}-N-(3-methoxy-propyl)-benzamide] | < 100 | 1000 to 10000 |
| COCCN1CCc2ccc(Nc3ncc(Cl)c(Nc4ccccc4C(=O)NCCCCN(C)C)n3)cc2CC1 [Example 1400, {5-Chloro-2-[3-(2-methoxy-ethyl)-2,3,4,5-tetrahydro-1H-benzo[d]azepin-7-ylamino]-pyrimidin-4-ylamino}-N-(4-dimethylamino-butyl)-benzamide] | 100 to 1000 | 1000 to 10000 |
| COCCN1CCc2ccc(Nc3ncc(Cl)c(Nc4ccccc4C(=O)NCCCN(C)C)n3)cc2CC1 [Example 1401, 2-{5-Chloro-2-[3-(2-methoxy-ethyl)-2,3,4,5-tetrahydro-1H-benzo[d]azepin-7-ylamino]-pyrimidin-4-ylamino}-N-(3-dimethylamino-propyl)-benzamide] | 100 to 1000 | 100 to 1000 |
| COCCN1CCc2ccc(Nc3ncc(Cl)c(Nc4ccccc4C(=O)NCCN4CCN(C)CC4)n3)cc2CC1 [Example 1402, 2-{5-Chloro-2-[3-(2-methoxy-ethyl)-2,3,4,5-tetrahydro-1H-benzo[d]azepin-7-ylamino]-pyrimidin-4-ylamino}-N-[2-(4-methyl-piperazin-1-yl)-ethyl]-benzamide] | 100 to 1000 | 1000 to 10000 |
| C#CCNC(=O)c1cccc(F)c1Nc1nc(Nc2ccc3c(c2)CCN(CCOC)CC3)ncc1Cl [Example 1403, 2-{5-Chloro-2-[3-(2-methoxy-ethyl)-2,3,4,5-tetrahydro-1H-benzo[d]azepin-7-ylamino]-pyrimidin-4-ylamino}-3-fluoro-N-prop-2-ynyl-benzamide] | < 100 | < 100 |
| C#CCNC(=O)c1cccc(F)c1Nc1nc(Nc2ccc3c(c2)NC(=O)CCC3)ncc1Cl [Example 1404, 2-[5-Chloro-2-(2-oxo-2,3,4,5-tetrahydro-1H-benzo[b]azepin-8-ylamino)-pyrimidin-4-ylamino]-3-fluoro-N-prop-2-ynyl-benzamide] | 100 to 1000 | 100 to 1000 |
| C#CCNC(=O)c1cccc(F)c1Nc1nc(Nc2ccc3c(c2)N(CC)C(=O)CCC3(C)C)ncc1Cl [Example 1405, 2-[5-Chloro-2-(1-ethyl-5,5-dimethyl-2-oxo-2,3,4,5-tetrahydro-1H-benzo[b]azepin-8-ylamino)-pyrimidin-4-ylamino]-3-fluoro-N-prop-2-ynyl-benzamide] | 100 to 1000 | < 100 |
| C#CCNC(=O)c1cccc(F)c1Nc1nc(Nc2ccc3c(c2)NC(=O)CCC3(C)C)ncc1Cl [Example 1406, 2-[5-Chloro-2-(5,5-dimethyl-2-oxo-2,3,4,5-tetrahydro-1H-benzo[b]azepin-8-ylamino)-pyrimidin-4-ylamino]-3-fluoro-N-prop-2-ynyl-benzamide] | 100 to 1000 | < 100 |
